Experimental data reported in DBAASP.
Values after ≈ are worked out from the molar mass of the structure shown.

Columns and labels:
Experiment in all cases: ≥ marks a high value that may be exact or a test limit, other limits are often not marked, values filed in µg/mL are converted to µM
[1] = system: Trichophyton rubrum KCTC 6345
[2] = system: Staphylococcus aureus JC-1
[3] = system: Proteus vulgaris OX19 ATCC 6380
[4] = system: Staphylococcus aureus Cowan 1
[5] = system: Trichosporon beigelii KCTC 7707
[6] = system: Bacillus subtilis ATCC 6633
[7] = system: Micrococcus luteus Ml11
[8] = system: Malassezia furfur KCTC 7744
[9] = system: Candida albicans ATCC 90028
[10] = system: Shigella flexneri ATCC 203
[11] = system: Escherichia coli D21
[12] = system: Bacillus megaterium Bm11
[13] = system: Pseudomonas aeruginosa OT97
[14] = system: Escherichia coli AB94012
[15] = system: Staphylococcus aureus P1381
[16] = system: Bacillus subtilis AB91021
[17] = system: Bacillus thuringiensis AB92037
[18] = system: Staphylococcus aureus AB94004
[19] = system: Staphylococcus aureus P838
[20] = system: Staphylococcus aureus P1369
[21] = system: Enterococcus faecalis P675
[22] = system: Staphylococcus aureus P1386
[23] = system: Staphylococcus aureus P1374
[24] = system: Micrococcus luteus AB93113
[25] = system: Pseudomonas aeruginosa AB93066
[26] = system: Enterococcus faecalis ATCC 29212
[27] = system: Staphylococcus epidermidis ATCC 14990
[28] = system: Leuconostoc lactis
[29] = system: Streptococcus uberis
[30] = system: Bacillus cereus
[31] = system: Staphylococcus aureus ATCC 29213
[32] = system: Micrococcus luteus ATCC 9341
[33] = system: Listeria innocua
[34] = system: Bacillus anthracis Sterne 34F2
[35] = system: Staphylococcus aureus UL12
[36] = system: Burkholderia thailandensis
[37] = system: Escherichia coli W3110
[38] = system: Bacillus subtilis ATCC 9372
[39] = system: Bacillus anthracis
[40] = system: Escherichia coli
[41] = system: Staphylococcus aureus

CC[C@H](C)[C@H](NC(=O)[C@H](CCCCN)NC(=O)[C@@H](NC(=O)[C@@H](NC(=O)[C@H](CCC(N)=O)NC(=O)CNC(=O)[C@H](Cc1cnc[nH]1)NC(=O)[C@H](CCC(N)=O)NC(=O)[C@H](CC(N)=O)NC(=O)[C@H](CCC(N)=O)NC(=O)[C@@H](NC(=O)[C@H](CCCCN)NC(=O)[C@@H](N)Cc1ccccc1)C(C)C)C(C)C)C(C)C)C(=O)N[C@@H](Cc1ccccc1)C(=O)N[C@@H](Cc1cnc[nH]1)C(=O)N[C@@H](Cc1cnc[nH]1)C(=O)O [FKVQNQHGQVVKIFHH]
MIC [1]: 25 µM (≈ 48.7 µg/mL)
MIC [2]: ≥ 94 µM
MIC [3]: ≥ 1000 µM
MIC [4]: ≥ 1000 µM
MIC [5]: 6.3 µM (≈ 12.3 µg/mL)
MIC [6]: 20 µM (≈ 38.9 µg/mL)
MIC [7]: 23 µM (≈ 44.8 µg/mL)
MIC [8]: 12.5 µM (≈ 24.3 µg/mL)
MIC [9]: 6.3 µM (≈ 12.3 µg/mL)
MIC [10]: ≥ 205 µM
MIC [11]: ≥ 410 µM
MIC [12]: 1.95 µM (≈ 3.8 µg/mL)
MIC [13]: ≥ 617 µM

CC(C)C[C@H](NC(=O)[C@H](CO)NC(=O)CNC(=O)[C@H](Cc1c[nH]c2ccccc12)NC(=O)[C@H](Cc1ccccc1)NC(=O)CN)C(=O)N[C@@H](Cc1c[nH]c2ccccc12)C(=O)N[C@@H](CCC(=O)O)C(=O)NCC(=O)N[C@H](C(=O)N[C@@H](CCCCN)C(=O)N[C@@H](CO)C(=O)N[C@H](C(=O)N[C@H](C(N)=O)C(C)C)C(C)C)C(C)C [GFWGSLWEGVKSVV]
MIC [14]: ≥ 64.5 µM
MIC [15]: ≥ 322 µM
MIC [16]: ≥ 64.5 µM
MIC [17]: ≥ 64.5 µM
MIC [18]: 8.06 µM (≈ 12.5 µg/mL)
MIC [19]: ≥ 32.2 µM
MIC [20]: ≥ 80.6 µM
MIC [21]: ≥ 32.2 µM
MIC [22]: ≥ 161 µM
MIC [23]: ≥ 129 µM
MIC [24]: ≥ 64.5 µM
MIC [25]: ≥ 64.5 µM

CC[C@H](C)[C@H](N)C(=O)N[C@H](C(=O)NCC(=O)N[C@@H](Cc1cnc[nH]1)C(=O)N[C@@H](CC(C)C)C(=O)N[C@H](C(=O)N[C@@H](CCCCN)C(=O)N[C@H](C(=O)N[C@@H](C)C(=O)N[C@@H](CC(C)C)C(=O)NCC(=O)N[C@@H](CCSC)C(=O)N[C@@H](CC(C)C)C(=O)NCC(=O)N[C@@H](CC(C)C)C(N)=O)[C@@H](C)O)[C@@H](C)CC)[C@@H](C)CC [IIGHLIKTALGMLGL]
MIC [26]: 100 µM (≈ 155 µg/mL)
MIC [27]: 25 µM (≈ 38.7 µg/mL)
MIC [28]: 12 µM (≈ 18.6 µg/mL)
MIC [29]: 25 µM (≈ 38.7 µg/mL)
MIC [30]: 25 µM (≈ 38.7 µg/mL)
MIC [31]: 12 µM (≈ 18.6 µg/mL)
MIC [32]: 25 µM (≈ 38.7 µg/mL)
MIC [33]: ≥ 50 µM

CC[C@H](C)[C@H](N)C(=O)N[C@@H](CC(C)C)C(=O)NCC(=O)N1CCC[C@H]1C(=O)N[C@H](C(=O)N[C@@H](CC(C)C)C(=O)NCC(=O)N[C@@H](CC(C)C)C(=O)N[C@H](C(=O)N[C@@H](CO)C(=O)N[C@@H](CC(=O)O)C(=O)N[C@H](C(=O)N[C@@H](CC(C)C)C(=O)N[C@@H](CC(=O)O)C(=O)N[C@@H](CC(=O)O)C(=O)N[C@H](C(=O)N[C@@H](CC(C)C)C(=O)NCC(=O)N[C@H](C(=O)N[C@@H](CC(C)C)C(=O)O)[C@@H](C)CC)C(C)C)[C@@H](C)O)C(C)C)C(C)C [ILGPVLGLVSDTLDDVLGIL]
MIC [34]: ≥ 100 µM
MIC [35]: ≥ 180 µM
MIC [36]: ≥ 50 µM
MIC [37]: ≥ 180 µM
MIC [38]: ≥ 50 µM

CC[C@H](C)[C@H](NC(=O)[C@H](CC(C)C)NC(=O)[C@H](C)NC(=O)[C@@H]1CCCN1C(=O)[C@H](Cc1ccccc1)NC(=O)[C@@H](NC(=O)[C@H](CCCCN)NC(=O)[C@H](CO)NC(=O)[C@H](C)NC(=O)[C@@H](NC(=O)[C@H](CCCN=C(N)N)NC(=O)[C@H](Cc1ccccc1)NC(=O)[C@@H](NC(=O)[C@@H](NC(=O)[C@@H]1CCCN1C(=O)[C@@H](N)CC(C)C)C(C)C)C(C)C)C(C)C)C(C)C)C(=O)N[C@@H](CO)C(=O)N[C@@H](CCCCN)C(=O)N[C@@H](CC(C)C)C(=O)N[C@H](C(=O)O)[C@@H](C)O [LPVVFRVASKVFPALISKLT]
MIC [39]: ≥ 58.6 µM
MIC [40]: > 117 µM
MIC [30]: ≥ 117 µM
MIC [41]: 117 µM (≈ 256 µg/mL)
